Measurements reported in US9533991B2, “Inhibitors of Bruton's tyrosine kinase” (PHARMACYCLICS LLC, priority 2014, dated 2017).

Key:
Format in all cases: biochemical
Btk [1] = biological target: T1, Btk (Homo sapiens, UniProt Q06187); assay: Inhibition of a panel of kinases: Btk; conditions: kinase panel, Table 2
Method: (§1) The degree of inhibition of a panel of kinases is determined using assays similar to the kinase assay described in Example 53.

EGFR = EGFR (Homo sapiens, UniProt P00533); assay: Inhibition of a panel of kinases: EGFR; conditions: kinase panel, Table 2
Method: as §1

LCK = LCK (Homo sapiens, UniProt P06239); assay: Inhibition of a panel of kinases: LCK; conditions: kinase panel, Table 2
Method: as §1

JAK3 = biological target: T2, JAK3 (Homo sapiens, UniProt P52333); assay: Inhibition of a panel of kinases: JAK3; conditions: kinase panel, Table 2
T2 sequence (P52333 1-1124): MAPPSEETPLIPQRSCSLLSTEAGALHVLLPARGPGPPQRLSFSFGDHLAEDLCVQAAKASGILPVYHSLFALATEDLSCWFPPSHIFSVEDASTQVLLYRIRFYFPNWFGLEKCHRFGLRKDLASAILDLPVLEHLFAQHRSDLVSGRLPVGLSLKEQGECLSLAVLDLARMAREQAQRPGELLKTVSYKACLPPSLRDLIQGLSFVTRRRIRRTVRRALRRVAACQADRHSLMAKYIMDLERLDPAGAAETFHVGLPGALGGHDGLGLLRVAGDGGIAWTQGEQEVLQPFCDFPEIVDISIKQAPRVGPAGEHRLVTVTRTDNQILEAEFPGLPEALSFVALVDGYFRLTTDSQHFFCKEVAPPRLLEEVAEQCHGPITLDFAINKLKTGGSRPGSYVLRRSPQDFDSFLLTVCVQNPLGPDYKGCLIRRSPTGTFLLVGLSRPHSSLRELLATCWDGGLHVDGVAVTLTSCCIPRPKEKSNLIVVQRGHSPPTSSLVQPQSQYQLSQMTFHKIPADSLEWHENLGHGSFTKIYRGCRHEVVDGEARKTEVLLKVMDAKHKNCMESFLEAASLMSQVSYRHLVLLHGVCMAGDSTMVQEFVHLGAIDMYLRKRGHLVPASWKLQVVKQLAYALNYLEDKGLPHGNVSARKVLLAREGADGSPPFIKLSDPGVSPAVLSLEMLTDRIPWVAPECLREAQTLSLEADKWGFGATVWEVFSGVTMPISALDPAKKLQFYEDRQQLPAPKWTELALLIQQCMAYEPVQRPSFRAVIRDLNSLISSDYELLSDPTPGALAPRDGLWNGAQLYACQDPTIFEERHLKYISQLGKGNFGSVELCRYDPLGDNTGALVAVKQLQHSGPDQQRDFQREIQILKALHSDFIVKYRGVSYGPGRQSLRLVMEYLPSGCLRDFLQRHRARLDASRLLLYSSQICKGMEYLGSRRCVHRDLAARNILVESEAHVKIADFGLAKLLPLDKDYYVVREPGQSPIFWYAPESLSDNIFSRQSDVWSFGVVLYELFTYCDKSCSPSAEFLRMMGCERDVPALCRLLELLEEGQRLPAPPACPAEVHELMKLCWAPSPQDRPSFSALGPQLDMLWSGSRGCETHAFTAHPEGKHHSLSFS
Method: as §1

Btk [2] = biological target: T1, Btk; assay: Btk in vitro inhibitory activity (Method A, B or C); set-up: purified from insect cells as a full-length construct containing a N-terminal 6×-His tag; His6 (N); made in house; host or cells: insect cells (baculovirus, Sf21); conditions: one of the methods of Example 53a, 53b, 53c
Method: Btk kinase activity is determined using a time-resolved fluorescence resonance energy transfer (TR-FRET) methodology. Measurements are performed in a reaction volume of 50 μL using 96-well assay plates. Kinase enzyme, inhibitor, ATP (at the Km for the kinase), and 1 μM peptide substrate (Biotin-AVLESEEELYSSARQ-NH2 (SEQ ID NO: 1)) are incubated in a reaction buffer composed of 20 mM Tris, 50 mM NaCl, MgCl2 (5-25 mM depending on the kinase), MnCl2 (0-10 mM), 1 mM DTT, 0.1 mM EDTA, 0.01% bovine serum albumin, 0.005% Tween-20, and 10% DMSO at pH 7.4 for one hour. The reaction is quenched by the addition of 1.2 equivalents of EDTA (relative to divalent cation) in 25 μL of 1× Lance buffer (Perkin-Elmer). Streptavidin-APC (Perkin-Elmer) and Eu-labeled p-Tyr100 antibody (Perkin-Elmer) in 1× Lance buffer are added in a 25 μL volume to give final concentrations of 100 nM and 2.5 nM, respectively, and the mixture is allowed to incubate for one hour. The TR-FRET signal is measured on a multimode plate reader with an excitation wavelength (λEx) of 330 nm and detection wavelengths (λEm) of 615 and 665 nm. Activity is determined by the ratio of the fluorescence at 665 nm to that at 615 nm. For each compound, enzyme activity is measured at various concentrations of compound. Negative control reactions are performed in the absence of inhibitor in replicates of six, and two no-enzyme controls are used to determine baseline fluorescence levels. Inhibition constants, Ki(app), ware obtained using the program BatchKi (Kuzmic et al. (2000), Anal. Biochem. 286:45-50). IC50s are obtained according to the equation: IC50={Ki(app)/1+[ATP]/Km^ATP)}+[E]total/2;
For all kinases, [ATP]=Km^ATP, [Btk]total=0.5 nM and [Lck]total=6 nM.
Kinase activity is measured in vitro using electrophoretic mobility shift assay. The kinase reactions are assembled in a total volume of 25 μL in 384 well plates. The reactions comprise: BTK enzyme (1 nM, N-terminal His6-tagged, recombinant, full-length, human BTK purified from baculovirus Sf21 insect cell system), inhibitor, ATP (16 μM, the apparent Km for the kinase), fluorescently labeled peptide substrate (1 μM, FAM-GEEPLYWSFPAKKK-NH2 (SEQ ID NO: 2)) in a reaction buffer composed of 100 mM HEPES, pH7.5, 5 mM MgCl2 1 mM DTT, 0.1% bovine serum albumin, 0.01% Triton X-100, and 1% DMSO. The reaction is incubated for one hour and is quenched by the addition of 45 μL of termination buffer (100 mM HEPES, pH7.5, 0.01% Triton X-100, 30 mM EDTA). The terminated reactions are analyzed using 12 channel LabChip® 3000 microfluidic detection instrument (Caliper Life Sciences). The enzymatic phosphorylation of the peptide results in a change in net charge, enabling electrophoretic separation of product from substrate peptide. As substrate and product peptides are separated, two peaks of fluorescence are observed. Change in the relative fluorescence intensity of the substrate and product peaks is the parameter measured, reflecting enzyme activity. In the presence of an inhibitor, the ratio between product and substrate is altered: the signal of the product decreases, while the signal of the substrate increases.
Activity in each sample is determined as the product to sum ratio (PSR):P/(S+P), where P is the peak height of the product peptide and S is the peak height of the substrate peptide. For each compound, enzyme activity is measured at various concentrations (12 concentrations of compound spaced by 3× dilution intervals). Negative control samples (0%−inhibition in the absence of inhibitor) and positive control samples (100%−inhibition, in the presence of 20 mM EDTA) are assembled in replicates of four and are used to calculate %−inhibition values for each inhibitor at each concentration. Percent inhibition (Pinh) is determined using following equation: […]

Sequence of EGFR (P00533 25-1210, species assumed): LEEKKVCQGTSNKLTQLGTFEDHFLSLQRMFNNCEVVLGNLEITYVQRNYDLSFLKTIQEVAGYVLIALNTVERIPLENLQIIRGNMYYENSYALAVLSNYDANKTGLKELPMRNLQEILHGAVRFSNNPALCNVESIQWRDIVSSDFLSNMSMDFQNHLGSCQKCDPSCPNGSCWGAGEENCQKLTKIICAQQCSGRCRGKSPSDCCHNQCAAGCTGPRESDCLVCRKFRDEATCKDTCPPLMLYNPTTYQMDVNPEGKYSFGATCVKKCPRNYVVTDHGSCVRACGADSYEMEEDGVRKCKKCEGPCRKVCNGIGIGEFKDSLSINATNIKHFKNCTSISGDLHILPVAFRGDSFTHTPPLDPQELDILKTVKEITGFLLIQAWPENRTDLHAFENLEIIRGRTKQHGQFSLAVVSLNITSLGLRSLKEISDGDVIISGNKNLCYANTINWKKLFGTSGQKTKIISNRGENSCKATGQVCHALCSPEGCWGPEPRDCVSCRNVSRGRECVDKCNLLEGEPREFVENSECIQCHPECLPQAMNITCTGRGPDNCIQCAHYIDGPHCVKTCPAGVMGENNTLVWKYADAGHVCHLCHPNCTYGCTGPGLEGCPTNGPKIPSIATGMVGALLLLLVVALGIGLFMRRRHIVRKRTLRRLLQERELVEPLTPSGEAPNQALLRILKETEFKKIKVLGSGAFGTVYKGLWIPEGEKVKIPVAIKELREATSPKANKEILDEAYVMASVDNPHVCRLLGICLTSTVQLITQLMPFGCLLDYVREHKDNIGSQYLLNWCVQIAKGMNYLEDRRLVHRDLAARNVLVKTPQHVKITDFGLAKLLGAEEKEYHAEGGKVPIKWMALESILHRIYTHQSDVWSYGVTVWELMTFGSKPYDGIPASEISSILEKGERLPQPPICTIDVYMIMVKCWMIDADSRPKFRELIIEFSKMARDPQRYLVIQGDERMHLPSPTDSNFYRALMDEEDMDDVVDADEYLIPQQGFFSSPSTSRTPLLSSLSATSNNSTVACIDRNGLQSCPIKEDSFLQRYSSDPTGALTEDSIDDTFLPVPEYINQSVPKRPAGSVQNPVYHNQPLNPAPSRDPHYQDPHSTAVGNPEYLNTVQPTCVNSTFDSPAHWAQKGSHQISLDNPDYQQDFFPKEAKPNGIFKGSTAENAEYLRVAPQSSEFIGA
Sequence of LCK (P06239 whole entry, species assumed): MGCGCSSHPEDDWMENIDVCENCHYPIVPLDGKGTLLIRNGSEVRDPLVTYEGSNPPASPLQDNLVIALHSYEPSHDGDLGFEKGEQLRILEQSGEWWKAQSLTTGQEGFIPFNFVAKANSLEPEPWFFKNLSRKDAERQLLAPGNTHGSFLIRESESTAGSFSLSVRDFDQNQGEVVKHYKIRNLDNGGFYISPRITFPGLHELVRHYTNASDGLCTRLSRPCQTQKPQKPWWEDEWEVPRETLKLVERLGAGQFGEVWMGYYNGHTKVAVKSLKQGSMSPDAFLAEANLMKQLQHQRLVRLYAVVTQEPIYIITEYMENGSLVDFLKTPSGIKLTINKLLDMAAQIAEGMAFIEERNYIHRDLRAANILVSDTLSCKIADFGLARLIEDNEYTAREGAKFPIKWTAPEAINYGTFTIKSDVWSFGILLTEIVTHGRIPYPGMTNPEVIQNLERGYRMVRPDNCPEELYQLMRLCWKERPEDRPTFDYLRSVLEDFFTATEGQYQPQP
T1 sequence (Q06187 whole entry): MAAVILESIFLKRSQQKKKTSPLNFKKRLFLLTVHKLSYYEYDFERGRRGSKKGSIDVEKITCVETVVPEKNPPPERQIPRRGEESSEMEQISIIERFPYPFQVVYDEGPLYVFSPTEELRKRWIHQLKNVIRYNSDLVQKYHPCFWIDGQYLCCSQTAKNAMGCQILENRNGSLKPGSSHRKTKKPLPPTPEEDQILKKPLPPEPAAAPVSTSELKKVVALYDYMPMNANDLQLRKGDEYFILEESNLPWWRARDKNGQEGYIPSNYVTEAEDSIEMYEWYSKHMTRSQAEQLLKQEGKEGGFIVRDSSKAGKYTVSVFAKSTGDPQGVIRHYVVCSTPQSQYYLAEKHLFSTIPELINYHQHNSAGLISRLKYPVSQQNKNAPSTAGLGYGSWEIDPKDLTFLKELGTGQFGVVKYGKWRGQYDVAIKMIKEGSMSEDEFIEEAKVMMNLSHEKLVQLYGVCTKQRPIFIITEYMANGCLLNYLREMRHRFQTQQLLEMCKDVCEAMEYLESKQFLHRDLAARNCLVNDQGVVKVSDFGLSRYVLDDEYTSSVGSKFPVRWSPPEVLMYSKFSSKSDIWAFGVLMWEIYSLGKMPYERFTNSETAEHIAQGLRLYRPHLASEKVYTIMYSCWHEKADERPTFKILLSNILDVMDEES

IC50 (Btk [1]) [nM]	IC50 (EGFR) [nM]	IC50 (LCK) [nM]	IC50 (JAK3) [nM]	IC50 (Btk [2]) [nM]	Structure (SMILES)
≤ 10	> 1000	100 to 1000	> 1000	≤ 10	CC#CC(=O)N1CC[C@@H](n2nc(-c3ccc(C(=O)Nc4cc(C)ccn4)cc3)c3c(N)ncnc32)C1 [Compound ID 2, (R)-4-(4-amino-1-(1-but-2-ynoylpyrrolidin-3-yl)-1H-pyrazolo[3,4-d]pyrimidin-3-yl)-N-(4-methylpyridin-2-yl)benzamide]
≤ 10	> 1000	100 to 1000	> 1000	≤ 10	CC#CC(=O)N1CC[C@@H](n2nc(-c3ccc(C(=O)Nc4cc(C(C)C)ccn4)cc3)c3c(N)ncnc32)C1 [Compound ID 4, (R)-4-(4-amino-1-(1-but-2-ynoylpyrrolidin-3-yl)-1H-pyrazolo[3,4-d]pyrimidin-3-yl)-N-(4-isopropylpyridin-2-yl)benzamide]
≤ 10	> 1000	100 to 1000	> 1000	≤ 10	CC#CC(=O)N1CC[C@@H](n2nc(-c3ccc(C(=O)Nc4cc(C#N)ccn4)cc3)c3c(N)ncnc32)C1 [Compound ID 5, (R)-4-(4-amino-1-(1-but-2-ynoylpyrrolidin-3-yl)-1H-pyrazolo[3,4-d]pyrimidin-3-yl)-N-(4-cyanopyridin-2-yl)benzamide]
≤ 10	> 1000	100 to 1000	> 1000	≤ 10	CC#CC(=O)N1CCC[C@@H](n2nc(-c3ccc(C(=O)Nc4cc(C(C)C)ccn4)cc3)c3c(N)ncnc32)C1 [Compound ID 6, (R)-4-(4-amino-1-(1-but-2-ynoylpiperidin-3-yl)-1H-pyrazolo[3,4-d]pyrimidin-3-yl)-N-(4-isopropylpyridin-2-yl)benzamide]

Further lines, the compound ahead of its results:

Structure (SMILES)	IC50 (Btk [1]) [nM]	IC50 (EGFR) [nM]	IC50 (LCK) [nM]	IC50 (JAK3) [nM]	IC50 (Btk [2]) [nM]
CC#CC(=O)N1CC[C@@H](n2nc(-c3ccc(C(=O)Nc4cc(C(F)(F)F)ccn4)cc3)c3c(N)ncnc32)C1 [Compound ID 1, (R)-4-(4-amino-1-(1-but-2-ynoylpyrrolidin-3-yl)-1H-pyrazolo[3,4-d]pyrimidin-3-yl)-N-(4-(trifluoromethyl)pyridin-2-yl)benzamide]	≤ 10	100 to 1000	100 to 1000	> 1000	≤ 10
CC#CC(=O)N1CC[C@@H](n2nc(-c3ccc(C(=O)Nc4ccccn4)cc3)c3c(N)ncnc32)C1 [Compound ID 3, (R)-4-(4-amino-1-(1-but-2-ynoylpyrrolidin-3-yl)-1H-pyrazolo[3,4-d]pyrimidin-3-yl)-N-(pyridin-2-yl)benzamide]	≤ 10	100 to 1000	10 to 100	> 1000	≤ 10
CCC#CC(=O)N1CC[C@@H](n2nc(-c3ccc(C(=O)Nc4cc(C)ccn4)cc3)c3c(N)ncnc32)C1 [Compound ID 7, (R)-4-(4-amino-1-(1-pent-2-ynoylpyrrolidin-3-yl)-1H-pyrazolo[3,4-d]pyrimidin-3-yl)-N-(4-methylpyridin-2-yl)benzamide]	≤ 10	> 1000	> 1000	> 1000	≤ 10
Cc1ccnc(NC(=O)c2ccc(-c3nn([C@@H]4CCN(C(=O)C#CC5CC5)C4)c4ncnc(N)c34)cc2)c1 [Compound ID 8, (R)-4-(4-amino-1-(1-(3-cyclopropylpropioloyl)pyrrolidin-3-yl)-1H-pyrazolo[3,4-d]pyrimidin-3-yl)-N-(4-methylpyridin-2-yl)benzamide]	≤ 10	100 to 1000	> 1000	> 1000	≤ 10
CC#CC(=O)N1CCC[C@@H](n2nc(-c3ccc(C(=O)Nc4nccs4)cc3)c3c(N)ncnc32)C1 [Compound ID 16, (R)-4-(4-amino-1-(1-but-2-ynoylpiperidin-3-yl)-1H-pyrazolo[3,4-d]pyrimidin-3-yl)-N-(thiazol-2-yl)benzamide]	≤ 10	10 to 100	10 to 100	–	≤ 10
CC#CC(=O)N1CCC[C@@H](n2nc(-c3ccc(C(=O)Nc4ncc(C)s4)cc3)c3c(N)ncnc32)C1 [Compound ID 17, (R)-4-(4-amino-1-(1-but-2-ynoylpiperidin-3-yl)-1H-pyrazolo[3,4-d]pyrimidin-3-yl)-N-(5-methylthiazol-2-yl)benzamide]	≤ 10	≤ 10	100 to 1000	–	≤ 10
C=CC(=O)N1CC[C@@H](n2nc(-c3ccc(C(=O)Nc4ccccn4)cc3)c3c(N)ncnc32)C1 [Compound ID 22, (R)-4-(1-(1-acryloylpyrrolidin-3-yl)-4-amino-1H-pyrazolo[3,4-d]pyrimidin-3-yl)-N-(pyridin-2-yl)benzamide]	≤ 10	≤ 10	100 to 1000	–	≤ 10
